US3976663A, “Certain cyclopropane carboxylic acid esters of 2,3-dihyrobenzofuran-3-ols” (The Procter & Gamble Company, priority 1971, dated 1976)
Where two headings read alike, the source gives them in different places.

Tests used:
houseflies [1] = assay: Housefly mortality tests, spray tower (Example IV); format: in vivo; conditions: for % Mortality (24 hr.): 10 second spray; for housefly mortality compared with the chrysanthemates of Table 1: equivalent amount in the test of Example IV
Protocol: (§1) 3-Coumaranyl chrysanthemate, 5-chloro-3-coumaranyl chrysanthemate, 5-methoxy-3-coumaranyl chrysanthemate, and natural pyrethrum, respectively, were dissolved in acetone and dispersed in distilled water with Triton X-100 emulsifier. The samples were applied for a 10 second period to houseflies retained in a 2 inch × 5 inch diameter screened cage. The spray is applied from the Water's vertical spray tower operating at 10 p.s.i. and discharging about 30 ml. of material per minute through an atomizer. The spray descends through an 8 inch stainless steel cylinder to test insects below the atomizer. The insects were retained in the sprayed cages for mortality observations.

houseflies [2] = assay: Residual activity against houseflies on treated panels (Example V); format: in vivo; conditions: 100 milligrams per square foot, one hour exposure
Text: (§2) 3-Coumaranyl chrysanthemate and natural pyrethrum, respectively, were formulated in deodorized kerosene to give a deposit rate of 100 milligrams per square foot of area for residual evaluation against houseflies and 200 and 400 milligrams per square foot of area for residual evaluation against German cockroaches. The formulations were uniformly applied at the rate of 8 milliliters/sq.ft. on unpainted plywood and 3.5 milliliters/sq.ft. on vinyl asbestos with a camel hair brush. Adult insects were exposed to each treated panel for one hour (houseflies) or two hours (cockroaches), transferred to clean cages, and held for mortality counts. The same treated panels were used for re-exposures after the aging period indicated.

German cockroaches = assay: Residual activity against cockroaches on treated panels (Example V); format: in vivo; conditions: Blattella germanica, 48 h
Text: as §2

Adult mosquito = assay: Insect mortality test, spray tower (Example VI); format: in vivo; conditions: 0.05 + 0.2 synergist (piperonyl butoxide) % W/V, 1 day
Protocol: as §1
(§3) All test species except the webbing clothes moth larvae were sprayed in the Water's vertical spray tower as described in Example IV. For the fabric tests, a two inch square area of wool fabric was dipped in the test formulations.

Adult rice weevils = assay: Insect mortality test, spray tower (Example VI); format: in vivo; conditions: 0.05 + 0.2 synergist (piperonyl butoxide) % W/V, 3 days
Protocol: as §1, §3

[3] = tested on: Adult saw toothed grain beetles; assay: Insect mortality test, spray tower (Example VI); format: in vivo; conditions: 0.05 + 0.2 synergist (piperonyl butoxide) % W/V, 3 days
Protocol: as §1, §3

Adult stable flies = assay: Insect mortality test, spray tower (Example VI); format: in vivo; conditions: 0.05 + 0.2 synergist (piperonyl butoxide) % W/V, 1 day
Protocol: as §1, §3

[4] = tested on: Black carpet beetle larvae; assay: Insect mortality test, spray tower (Example VI); format: in vivo; conditions: 0.05 + 0.2 synergist (piperonyl butoxide) % W/V, 7 days
Protocol: as §1, §3

German Cockroach = assay: Insect mortality test, spray tower (Example VI); format: in vivo; conditions: 0.05 + 0.2 synergist (piperonyl butoxide) % W/V, 2 days
Protocol: as §1, §3

Mexican Bean Beetle = assay: Insect mortality test, spray tower (Example VI); format: in vivo; conditions: 0.005 + 0.02 synergist (piperonyl butoxide) % W/V, 2 days
Protocol: as §1, §3

Mite = assay: Insect mortality test, spray tower (Example VI); format: in vivo; conditions: 0.05 + 0.2 synergist (piperonyl butoxide) % W/V, 5 days
Protocol: as §1, §3

Pea Aphid = assay: Insect mortality test, spray tower (Example VI); format: in vivo; conditions: 0.005 + 0.02 synergist (piperonyl butoxide) % W/V, 2 days
Protocol: as §1, §3

Southern Armyworm = assay: Insect mortality test, spray tower (Example VI); format: in vivo; conditions: 0.05 + 0.2 synergist (piperonyl butoxide) % W/V, 2 days
Protocol: as §1, §3

[5] = tested on: Webbing clothes moth larvae; assay: Insect mortality test, wool fabric dipped in test formulation (Example VI); format: in vivo; conditions: 0.05 + 0.2 synergist (piperonyl butoxide) % W/V, 7 days
Text: as §3

11 other insects = assay: Insect mortality tests, Example VI as a whole; format: in vivo
Protocol: as §1, §3

[6] = Mammalian toxicity, LD50 (rat); conditions: in vivo
[7] = 0.0025 + 0.025 PB (piperonyl butoxide) % W/V
[8] = Musca domestica, topical, 24 h, read-out: % Mortality (24 hr.)
[9] = 0.005 + 0.05 PB (piperonyl butoxide) % W/V

With CC(C)=CC1C(C(=O)OC2COc3ccccc32)C1(C)C (racemic) [Example I, (±) cis,trans-3-coumaranyl chrysanthemate] the “% Mortality (24 hr.)” value (houseflies [1]; 0.00125 + 0.0125 PB (piperonyl butoxide) % W/V) was 28%, the “% Mortality (24 hr.)” value (houseflies [1]; [7]) was 93% and the mortality at 0.00125 % strength (houseflies [1]; [8]) was 5%. The mortality at 0.0025 % strength (houseflies [1]; [8]) was 6%, the “% Mortality (24 hr.)” value (houseflies [2]; Plywood, age of residue 1 day) was 100% and the “% Mortality (24 hr.)” value (houseflies [2]; Plywood, age of residue 3 days) was 98%. The “% Mortality (24 hr.)” value (houseflies [2]; Plywood, age of residue 7 days) was 83%, the “% Mortality (24 hr.)” value (houseflies [2]; Vinyl, age of residue 1 day) was 100% and the “% Mortality (24 hr.)” value (houseflies [2]; Vinyl, age of residue 3 days) was 100%. For the same compound, the “% Mortality (24 hr.)” value (houseflies [2]; Vinyl, age of residue 7 days) was 59%, the mortality at 200 mg/sq ft (German cockroaches; read-out: % Mortality (48 hrs.), Plywood, 200 milligrams per sq. ft., age of residue 1 day, two hours exposure) was 85% and the mortality at 200 mg/sq ft (German cockroaches; read-out: % Mortality (48 hrs.), Plywood, 200 milligrams per sq. ft., age of residue 3 days, two hours exposure) was 83%. It also gave a mortality at 200 mg/sq ft (German cockroaches; read-out: % Mortality (48 hrs.), Plywood, 200 milligrams per sq. ft., age of residue 7 days, two hours exposure) of 93%, a mortality at 200 mg/sq ft (German cockroaches; read-out: % Mortality (48 hrs.), Plywood, 200 milligrams per sq. ft., age of residue 14 days, two hours exposure) of 85% and a mortality at 400 mg/sq ft (German cockroaches; read-out: % Mortality (48 hrs.), Plywood, 400 milligrams per sq. ft., age of residue 1 day, two hours exposure) of 83%. The mortality at 400 mg/sq ft (German cockroaches; read-out: % Mortality (48 hrs.), Plywood, 400 milligrams per sq. ft., age of residue 3 days, two hours exposure) was 83%, the mortality at 400 mg/sq ft (German cockroaches; read-out: % Mortality (48 hrs.), Plywood, 400 milligrams per sq. ft., age of residue 7 days, two hours exposure) was 90% and the mortality at 400 mg/sq ft (German cockroaches; read-out: % Mortality (48 hrs.), Plywood, 400 milligrams per sq. ft., age of residue 14 days, two hours exposure) was 73%. The mortality at 200 mg/sq ft (German cockroaches; read-out: % Mortality (48 hrs.), Vinyl, 200 milligrams per sq. ft., age of residue 1 day, two hours exposure) was 100%, the mortality at 200 mg/sq ft (German cockroaches; read-out: % Mortality (48 hrs.), Vinyl, 200 milligrams per sq. ft., age of residue 3 days, two hours exposure) was 95% and the mortality at 200 mg/sq ft (German cockroaches; read-out: % Mortality (48 hrs.), Vinyl, 200 milligrams per sq. ft., age of residue 7 days, two hours exposure) was 70%. For the same compound, the mortality at 200 mg/sq ft (German cockroaches; read-out: % Mortality (48 hrs.), Vinyl, 200 milligrams per sq. ft., age of residue 14 days, two hours exposure) was 20%, the mortality at 400 mg/sq ft (German cockroaches; read-out: % Mortality (48 hrs.), Vinyl, 400 milligrams per sq. ft., age of residue 1 day, two hours exposure) was 100% and the mortality at 400 mg/sq ft (German cockroaches; read-out: % Mortality (48 hrs.), Vinyl, 400 milligrams per sq. ft., age of residue 3 days, two hours exposure) was 100%. The mortality at 400 mg/sq ft (German cockroaches; read-out: % Mortality (48 hrs.), Vinyl, 400 milligrams per sq. ft., age of residue 7 days, two hours exposure) was 100%, the mortality at 400 mg/sq ft (German cockroaches; read-out: % Mortality (48 hrs.), Vinyl, 400 milligrams per sq. ft., age of residue 14 days, two hours exposure) was 83% and the “% Mortality (days)” value (Adult mosquito) was 100%. The “% Mortality (days)” value (Adult rice weevils) was 100%, the “% Mortality (days)” value [3] was 100% and the “% Mortality (days)” value (Adult stable flies) was 100%. For the same compound, the “% Mortality (days)” value [4] was 40%, the “% Mortality (days)” value (German Cockroach) was 30% and the “% Mortality (days)” value (Mexican Bean Beetle) was 80%. For the same compound, the “% Mortality (days)” value (Mite) was 69%, the “% Mortality (days)” value (Pea Aphid) was 65% and the “% Mortality (days)” value (Southern Armyworm) was 70%. For the same compound, the “% Mortality (days)” value [5] was 100%, the “effectiveness against 11 other insects” value (11 other insects) was “effective” and the LD50 [6] was greater than 7570 mg/kg.
In the case of CC(C)=CC1C(C(=O)OC2COc3ccc(Cl)cc32)C1(C)C (racemic) [Example II, (±) cis,trans-5-chloro-3-coumaranyl chrysanthemate], the “% Mortality (24 hr.)” value (houseflies [1]; [7]) is reported as 56%, the “% Mortality (24 hr.)” value (houseflies [1]; [9]) is reported as 99% and the mortality at 0.005 % strength (houseflies [1]; [8]) is reported as 5%.
With COc1ccc2c(c1)C(OC(=O)C1C(C=C(C)C)C1(C)C)CO2 (racemic) [Example III, (±) cis, trans-5-methoxy-3-coumaranyl chrysanthemate] the “% Mortality (24 hr.)” value (houseflies [1]; [9]) was 57%, the “% Mortality (24 hr.)” value (houseflies [1]; 0.01 + 0.1 PB (piperonyl butoxide) % W/V) was 100% and the mortality at 0.01 % strength (houseflies [1]; [8]) was 0%.
For CC1(C)C(C(=O)OC2COc3ccccc32)C1(C)C (stereo not drawn) [3-coumaranyl 2,2,3,3-tetramethylcyclopropanecarboxylate], the “housefly mortality compared with the chrysanthemates of Table 1” value (houseflies [1]) was “equivalent results”.
For CC1(C)C(C=C2CCCC2)C1C(=O)OC1COc2ccccc21 (stereo not drawn) [3-coumaranyl 3-(2,2-tetramethyleneethenyl)-2-dimethylcyclopropanecarboxylate], the “housefly mortality compared with the chrysanthemates of Table 1” value (houseflies [1]) was “equivalent results”.
With CC1(C)C(C(=O)OC2COc3ccc(Cl)cc32)C1(C)C (stereo not drawn) [5-chloro-3-coumaranyl 2,2,3,3-tetramethylcyclopropanecarboxylate] the “housefly mortality compared with the chrysanthemates of Table 1” value (houseflies [1]) was “equivalent results”.
In the case of CC1(C)C(C=C2CCCC2)C1C(=O)OC1COc2ccc(Cl)cc21 (stereo not drawn) [5-chloro-3-coumaranyl 3-(2,2-tetramethyleneethenyl)-2,2-dimethylcyclopropanecarboxylate], the “housefly mortality compared with the chrysanthemates of Table 1” value (houseflies [1]) is reported as “equivalent results”.
In the case of COc1ccc2c(c1)C(OC(=O)C1C(C)(C)C1(C)C)CO2 (stereo not drawn) [5-methoxy-3-coumaranyl 2,2,3,3-tetramethylcyclopropanecarboxylate], the “housefly mortality compared with the chrysanthemates of Table 1” value (houseflies [1]) is reported as “equivalent results”.
In the case of COc1ccc2c(c1)C(OC(=O)C1C(C=C3CCCC3)C1(C)C)CO2 (stereo not drawn) [5-methoxy-3-coumaranyl 3-(2,2-tetramethyleneethenyl)-2,2-dimethylcyclopropanecarboxylate], the “housefly mortality compared with the chrysanthemates of Table 1” value (houseflies [1]) is reported as “equivalent results”.
For CC1(C)C(C(=O)OC2COc3ccc([N+](=O)[O-])cc32)C1(C)C (stereo not drawn) [5-nitro-3-coumaranyl 2,2,3,3-tetramethylcyclopropanecarboxylate], the “housefly mortality compared with the chrysanthemates of Table 1” value (houseflies [1]) was “equivalent results”.
With CC1(C)C(C=C2CCCC2)C1C(=O)OC1COc2ccc([N+](=O)[O-])cc21 (stereo not drawn) [5-nitro-3-coumaranyl 3-(2,2-tetramethyleneethenyl)-2-dimethylcyclopropanecarboxylate] the “housefly mortality compared with the chrysanthemates of Table 1” value (houseflies [1]) was “equivalent results”.
With CC(C)=CC1C(C(=O)OC2COc3ccc([N+](=O)[O-])cc32)C1(C)C (stereo not drawn) [5-nitro-3-coumaranyl chrysanthemate] the “housefly mortality compared with the chrysanthemates of Table 1” value (houseflies [1]) was “equivalent results”.
